Source: article PMC6929975, “A supramolecular protein chaperone for vaccine delivery” (Theranostics, 2020)
Starred links: 1 amine or outer side, 2 acyl side, 3 side chain; linkers in the order of their positions; H or OH if unused. Non-standard residues stand in square brackets, D forms with d. Residues, ends and D or L forms follow the SMILES beside them. Groups on a side chain read outwards from the residue. *: point of attachment. γGlu = O=C(O)[C@H](CCC(=O)[*:2])N[*:1]; X1 = CC(C(=O)*)c1ccc(-c2ccccc2)c(F)c1

Columns and labels:
[1] = Dissolution and protein-induced hydrogelation / gel stability; type: physicochemical; conditions: coassembled hydrogel with OVA, room temperature (20-25 °C)
Procedure: 2.5 mg of compounds were dispersed in endotoxin-free PBS buffer solution (pH = 7.4) at a final concentration of 0.5 wt% with sodium carbonate to adjust the final pH to 7.4. Proteins were dispersed in endotoxin-free PBS buffer solution (pH = 7.4) at a final concentration of 10 μg/μL. The proteins were then evenly dispersed in the hydrogel by vortexing. The mixtures were maintained at 37°C for half hour and hydrogel then formed. The final concentration of the protein in the hydrogel was 500 μg/mL.
We then tested the coassembly property of Comp. 1 with the model protein antigen ovalbumin (OVA). Comp. […] After adding OVA to the solution (final protein concentration = 0.05 wt%), we observed rapid hydrogelation within 10 minutes (Figure 1C). The resulting hydrogel was stable for more than 3 months at room temperature (20-25 °C). The maximum proportion of the nanofibers composed of OVA was 50% for Comp. 1 (Figure S5 and S6).

[2] = system: splenocytes; conditions: 80 µg/mL
[3] = system: Raw 264.7 mouse macrophages; conditions: 80 µg/mL
[4] = molecular target: T1, ovalbumin (OVA) (Gallus gallus, UniProt P01012); experiment: Microscale thermophoresis (MST) binding to OVA; conditions: Monolith NT.115, NT-647-labelled protein, PBS with 0.05% Tween-20, pH 7.4, Comp. 0.25 μM to 10 mM
T1 construct: purchased InvivoGen
T1 sequence (P01012 1-386): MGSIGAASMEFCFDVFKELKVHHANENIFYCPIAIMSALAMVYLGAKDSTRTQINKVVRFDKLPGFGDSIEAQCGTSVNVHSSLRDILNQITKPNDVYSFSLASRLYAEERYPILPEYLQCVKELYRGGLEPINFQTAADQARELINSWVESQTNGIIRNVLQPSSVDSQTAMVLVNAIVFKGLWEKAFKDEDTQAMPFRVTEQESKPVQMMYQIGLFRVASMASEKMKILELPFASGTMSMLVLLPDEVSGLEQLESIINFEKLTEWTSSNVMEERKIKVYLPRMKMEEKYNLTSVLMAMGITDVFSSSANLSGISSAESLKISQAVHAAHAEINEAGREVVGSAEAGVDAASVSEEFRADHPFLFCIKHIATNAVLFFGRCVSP
Source text: For the interaction experiments of fluorescent-proteins with Comp. […] 1 or 2 at 1:1 volume ratio.

[5] = Antigen release assay (OVA release from hydrogel); type: physicochemical; conditions: physically encapsulated OVA, 0.2 wt% gel, 150 μL, 30 μg OVA-RBITC, PBS pH 7.4, 37 °C, absorbance 560 nm
Procedure: The released profiles of OVA-RBITC from Vac-1 and Vac-2 in vitro were studied at 37 °C. 150 μL of Vac-1 or Vac-2 (0.2 wt%) containing 30 μg of OVA-RBITC was used for the measurement. 150 μL PBS solution (pH = 7.4) was firstly added on top of the gel, 100 μL of solution was taken out at the desired time point and 100 μL of fresh PBS solutions was added back. The absorbance of OVA-RBITC was determined at 560 nm by a microplate reader (BioTek Synergy 4) to calculate the cumulative release rate of OVA-RBITC from hydrogel vaccines.

| Compound | stability of the resulting hydrogel [1] | cell viability, splenocytes [2] | cell viability, Raw 264.7 [3] | binding affinity for OVA, in words [4] | cumulative OVA release within 16 hours [5] |
| --- | --- | --- | --- | --- | --- |
| CC(C(=O)NCC(=O)N[C@H](Cc1ccccc1)C(=O)N[C@H](Cc1ccccc1)C(=O)N[C@H](Cc1ccc(O)cc1)C(=O)N[C@H](CCCCNC(=O)CC[C@H](NC(=O)CC[C@H](N)C(=O)O)C(=O)O)C(N)=O)c1ccc(-c2ccccc2)c(F)c1 (some centres unmarked) [Comp. 1, Fbp-G^DF^DF^DY^DK(γE)2-NH2] (X1-G[dF][dF][dY][dK]([γGlu-γGlu])-NH2) | more than 3 months | did not remarkably reduce the cell viability | did not remarkably reduce the cell viability |  |  |
| Fbp-G^DF^DF^DY [Comp. 2] |  |  |  | no measurable binding affinity | ~100% |
